Measured values as given in US10457676B2, “Capsazepine analogs for the treatment of cancer and other proliferative diseases” (THE BOARD OF REGENTS OF THE UNIVERSITY OF TEXAS SYSTEM, priority 2014, dated 2019).

Legend:
[1] = tested on: SCC4 xenografts; test: OSCC mouse xenograft model, intra-tumor injection; format: in vivo, athymic nude mice
Method: All studies were approved by the UTHSCSA Institutional Animal Care and Use Committee. Six week-old female athymic nude mice (Harlan, Indianapolis, Ind.) were used in a laminar air-flow cabinet under pathogen-free conditions. They were provided with a 12 h light/dark schedule at controlled temperature and humidity with food and water ad libitum. Mice were acclimated for one week prior to study initiation.
Mice were injected subcutaneously in the right flank with 2×10^6 SCC4 cells in 0.1 mL of sterile PBS. Four weeks post-inoculation, tumors grew to an average volume of 150 mm^3. Mice were stratified into two experimental groups (n=5 per group), which received the following treatments as intra-tumor injections: group A, vehicle control; group B, capsazepine or capsazepine derivative (analog) treatment. Treatments were repeated every other day for a total of 14 days.
Capsazepine and novel capsazepine analogs stock solutions (20 μg/μL, 100% Ethanol) were diluted to 5% Ethanol in sterile saline generating a final concentration of 1 μg/μL. SCC4 xenografts received intra-tumor injections of 40 μg CIDD24 or 40 μg capsazepine every other day (FIG. 4) for two weeks. In a second study SCC4 xenografts were injected with 80 μg CIDD24 or 80 μg CIDD111 every other day for two weeks (FIG. 5). Control xenografts received intra-tumor injections with vehicle control (5% Ethanol in sterile saline). Mice were monitored daily for tumor growth (using digital calipers), cachexia, and weight loss. Body temperature was monitored for 24 h following treatments. Tumor volumes were calculated by the elliptical formula: ½(Length×Width^2) (Jensen, et al., 2008).
Statistical analysis was performed using GraphPad Prism4 (San Diego, Calif.). Experiments were performed in triplicate and results are represented as means±SD except when indicated. Cytotoxicity assays of cell viability were analyzed by one-way ANOVA and Bonferroni's post hoc test (n=4). Statistical analyses of tumor growth were made using analysis of variance with repeated measures with Bonferroni's post hoc test (n=5). A p value less than 0.05 was considered statistically significant.

[2] = tested on: HSC3 cells; test: Cell viability with antioxidant N-acetyl-cysteine (reversal, ROS mechanism); format: cell-based, human; details: 10 μM, 24 hours
Method: OSCC cell lines, SCC4, SCC25, and HSC3 were derived from human primary tongue OSCC. SCC4 and SCC25 cells were obtained from ATCC (Rockville, Md.). HSC3 cells were kindly provided by Dr. Brian Schmidt (NYU) (Saghafi, et al., 2011). Breast cancer cells (MDA231), Prostate cancer cells (PC3), and Non-Small Cell Lung Cancer cells (H460) were obtained from ATCC (Rockville, Md.). Cells were maintained in DMEM (Gibco, Carlsbad, Calif.) containing 10% FBS at 37° C. in 5% CO2. Immortalized keratinocytes (OKF6-TERT2; Harvard Medical School Cell Culture Core Collection, Cambridge, Mass.) were used as control epithelial cells.
Cytotoxicity was assessed using the Cell Titer 96® Aqueous Non-Radioactive Cell Proliferation Assay (Promega, Madison, Wis.) according to manufacturer's protocol. Absorbance values of test groups were normalized against controls (n=4).
ROS levels in OSCC cell lines were examined by flow cytometry using 2,7-dichlorodihydrofluorescein diacetate (DCF-DA; Sigma-Aldrich, St. Louis, Mo.). Cells (3×10^5) were plated in 12-well plates and incubated for 30 min with DCF-DA at 37° C. then treated with 30 μM of the appropriate capsazepine derivative or capsazepine using phenol free media with and without 10 mM NAC. Treated cells were incubated for 1 h at 37° C., harvested, washed twice, and analyzed by FACS.

[3] = tested on: oral cancer tumors; details: direct injection into tumors; cited from earlier work
[4] = SCC4 tumors, 40 μg intra-tumor every other day for two weeks, n=5
[5] = SCC4 tumors, 80 μg every other day for two weeks, p<0.001

Oc1cc2c(cc1O)CN(C(=S)NCCc1ccc(Cl)cc1)CC2 [CIDD24, N-[2-(4-chlorophenyl)ethyl]-6,7-dihydroxy-1,2,3,4-tetrahydroisoquinoline-2-carbothioamide]
reduction in tumor growth compared to vehicle control [1, 4]: 80%
reduction in tumor growth compared to vehicle control [1, 5]: significant reduction in tumor growth
tumor volume % change, difference between CIDD 24 and capsazepine ([1]; SCC4 xenografts, 40 μg (1 μg/μl), 10 day period, #=p<0.05): statistically significant difference

O=C(NCCc1ccc(Cl)cc1)N1CCc2cc(O)c(O)cc2C1 [CIDD25, N-[2-(4-chlorophenyl)ethyl]-6,7-dihydroxy-1,2,3,4-tetrahydroisoquinoline-2-carboxamide]
reduction in tumor growth compared to vehicle control [1, 4]: 50%

Oc1cc2c(cc1O)C(c1ccccc1)N(C(=S)NCc1ccccc1)CC2 (centres unmarked) [CIDD111, N-benzyl-6,7-dihydroxy-1-phenyl-1,2,3,4-tetrahydroisoquinoline-2-carbothioamide]
reduction in tumor growth compared to vehicle control [1, 5]: significant reduction in tumor growth
efficacy compared with CIDD24 ([1]; SCC4 tumors, 80 μg every other day for two weeks, no significant difference in potency): slightly more effective than CIDD24

Oc1cc2c(cc1O)C(c1ccccc1)N(C(=S)NCCc1ccc(Cl)cc1)CC2 (centres unmarked) [CIDD 99, N-[2-(4-chlorophenyl)ethyl]-6,7-dihydroxy-1-phenyl-1,2,3,4-tetrahydroisoquinoline-2-carbothioamide]
cell growth inhibition with 10 mM N-acetyl-cysteine added [2]: reversed

Oc1cc2c(cc1O)C(c1ccccc1)N(C(=S)NCCc1ccc(Cl)cc1Cl)CC2 (centres unmarked) [CIDD 118, N-[2-(2,4-dichlorophenyl)ethyl]-6,7-dihydroxy-1-phenyl-1,2,3,4-tetrahydroisoquinoline-2-carbothioamide]
cell growth inhibition with 10 mM N-acetyl-cysteine added [2]: reversed

Oc1cc2c(cc1O)CN(C(=S)NCCc1ccc(Cl)cc1)CCC2 [capsazepine]
cell growth inhibition with 10 mM N-acetyl-cysteine added [2]: reversed
tumor volume after administration [3]: reduction of tumor volume
reduction in tumor growth compared to vehicle control [1, 4]: ~50%
